In patent US20050245520A1, “2-Phenylpyridin-4-yl derivatives as alk5 inhibitors” (priority 2002, published 2005) one finds melting point data, which are given here for 36 compounds.

Broadly, the melting point is the temperature of the solid-liquid transition.

`Cn1cnc(COc2ccc(-c3cc(-c4nc(C(C)(C)C)[nH]c4-c4ccccn4)ccn3)cc2)c1` [Example 109, 4-(2-tert-Butyl-5-pyridin-2-yl-1H-imidazol-4-yl)-2-[4-(1-methyl-1H-imidazol4-ylmethoxy)-phenyl]-pyridine] registered a melting point of 156 °C. `Cc1cccc(-c2[nH]c(C(C)(C)C)nc2-c2ccnc(-c3ccc(OCCN4CCCC4)cc3)c2)n1` [Example 108, 4-(2-tert-Butyl-5-{6-methyl}-pyridin-2-yl-1H-imidazol-4-yl)-2-[4-(2-pyrrolidin-1-yl-ethoxy)-phenyl]-pyridine] registered a melting point of 168 °C. `COc1ccc(-c2cc(-c3c(-c4ccccn4)nc4ccccn34)ccn2)cc1` [Example 34, 3-[2-(4-methoxyphenyl)-pyridin-4-yl]-2-pyridin-2-yl-imidazo[1,2-a]pyridine] showed a melting point of 222 °C.

For `Cc1ccn2c(-c3ccnc(-c4ccc(N5CCOCC5)cc4)c3)c(-c3cccc(C)n3)nc2c1` [Example 80, 7-methyl-2-(6-methyl-pyridin-2-yl)-3-{2-[4-(morpholin-4-yl)phenyl]-pyridin-4-yl}-imidazo[1,2-a]pyridine], the melting point was determined as 208 °C.

Compound `Cc1cccc(-c2sc(N)nc2-c2ccnc(-c3ccc(OCC(N)=O)cc3)c2)n1` [Example 134] had a melting point of 191 °C. For `Cc1cccc(-c2[nH]c(C(C)(C)C)nc2-c2ccnc(-c3ccc(OCC(N)=O)cc3)c2)n1` [Example 107, 2-{4-[4-(2-tert-Butyl-5-{6-methyl}pyridin-2-yl-1H-imidazol-4-yl)-pyridin-2-yl]-phenoxy}-acetamide] the value was 210 °C; for `Cc1cccc(-c2nc3ccccn3c2-c2ccnc(-c3ccc(CN4CCOCC4)cc3)c2)n1` [Example 56, 2-(6-methyl-pyridin-2-yl)-3-[2-(4-(morpholin-4-ylmethyl)phenyl)-pyridin-4-yl]-imidazo[1,2-a]pyridine], 156 °C; for `Cc1cccc(-c2sc(N)nc2-c2ccnc(-c3ccc(CN4CCOCC4)cc3)c2)n1` [Example 131], 236 °C. For `Cc1cccc(-c2nc3ccccn3c2-c2ccnc(-c3ccc(NS(=O)(=O)C(F)(F)F)cc3)c2)n1` [Example 53, 2-(6-methyl-pyridin-2-yl)-3-{2-[4-(trifluoromethylsulfonylamino)phenyl]-pyridin-4-yl}-imidazo[1,2-a]pyridine] the value was 135 °C; for `CCS(=O)(=O)c1ccc(-c2cc(-c3nc(N)sc3-c3cccc(C)n3)ccn2)cc1` [Example 127], 219 °C; for `Cc1cccc(-c2cn[nH]c2-c2ccnc(-c3ccc(C(=O)NC4CCOCC4)cc3)c2)n1` [Example 18, 3-[2-(4-((tetrahydropyran-4-yl)aminocarbonyl)phenyl)pyridin-yl]-4-[6-methylpyridin-2-yl]-1H-pyrazole], 170 °C. For the compound `Cc1cccc(-c2n[nH]cc2-c2ccnc(-c3ccc(C#N)cc3)c2)n1` [Example 3], the melting point came to 198 °C. The compound `CCS(=O)(=O)c1ccc(-c2cc(-c3c[nH]nc3-c3cccc(C)n3)ccn2)cc1` [Example 2, 2-[4-(Ethylsulfonyl)phenyl]-4-[3-(6-methylpyridin-2-yl)-1H-pyrazol-4-yl]pyridine] returned a melting point of 244 °C. Consider `Cc1cccc(-c2n[nH]cc2-c2ccnc(-c3ccc(Cl)cc3)c2)n1` [Example 5], for which the melting point turned out to be 190 °C. `Cc1cccc(-c2n[nH]cc2-c2ccnc(-c3ccc(C(=O)NC4CCOCC4)cc3)c2)n1` [Example 14, 4-{4-[3-(6-methylpyridin-2-yl)-1H-pyrazol-4-yl]pyridin-2-yl}-N-(tetrahydro-2H-pyran-4-yl)benzamide]: the melting point turned out to be 148 °C.

The compound `Cc1cccc(-c2c[nH]nc2-c2ccnc(-c3ccc(N4CCOCC4)cc3)c2)n1` [Example 20] yielded a melting point of 210 °C. Regarding `Cc1cccc(-c2n[nH]cc2-c2ccnc(-c3ccc(S(C)(=O)=O)cc3)c2)n1` [Example 7], the melting point fell in the range of 232 to 234 °C. As for `Cc1cccc(-c2nc3c(C)cccn3c2-c2ccnc(-c3ccc(OCC(N)=O)cc3)c2)n1` [Example 78, 8-methyl-2-(6-methyl-pyridin-2-yl)-3-{2-[4-(aminocarbonylmethyloxyl)phenyl]-pyridin-4-yl}-imidazo[1,2-a]pyridine], the melting point is 183 °C. In turn, `CN1CCN(c2ccc(-c3cc(-c4c(-c5ccccn5)nc5ccccn45)ccn3)cc2)CC1` [Example 55, 3-{2-[4-(4-methylpiperazin-1-yl)-phenyl]-pyridin-4-yl}-2-pyridin-2-yl-imidazo[1,2-a]pyridine] returned a melting point of 150 °C. `Cc1cccc(-c2[nH]c(C(C)(C)C)nc2-c2ccnc(-c3ccc(CN(C)C)cc3)c2)n1` [Example 101, (4-{4-[2-tert-Butyl-5-(6-methyl-pyridin-2-yl)-1H-imidazol-4-yl]-pyridin-2-yl}-benzyl)-dimethyl-amine] showed a melting point of 187 °C. Compound `COCCCNC(=O)c1ccc(-c2cc(-c3c(-c4cccc(C)n4)nc4ccccn34)ccn2)cc1` [Example 67, 2-(6-methyl-pyridin-2-yl)-3-{2-[4-((3-methoxypropylamino)carbonyl)phenyl]-pyridin-4-yl}-imidazo[1,2-a]pyridine] yielded a melting point of 165 °C. In the case of `Cc1cccc(-c2[nH]c(C(C)(C)C)nc2-c2ccnc(-c3ccc(C(=O)NC4CCOCC4)cc3)c2)n1` [Example 81] it was 174 °C; in that of `Nc1nc(-c2ccccn2)c(-c2ccnc(-c3ccc(N4CCOCC4)cc3)c2)s1` [Example 111], 246 °C; in that of `Cc1cccc(-c2sc(N)nc2-c2ccnc(-c3ccc(N4CCOCC4)cc3)c2)n1` [Example 132], 246 °C.

In turn, `Cc1ccn2c(-c3ccnc(-c4ccc(OCc5cn(C)cn5)cc4)c3)c(-c3cccc(C)n3)nc2c1` [Example 75, 7-methyl-2-(6-methyl-pyridin-2-yl)-3-{2-[4-((1-methyl-imidazol-4-yl)methyloxy)phenyl]-pyridin-4-yl}-imidazol[1,2-a]pyridine] came in with a melting point of 217 °C.

With `Cc1cccc(-c2n[nH]cc2-c2ccnc(-c3ccc(OCc4cn(C)cn4)cc3)c2)n1` [Example 1, 2-{4-[(1-methyl-1H-imidazol-4-yl)methoxy]phenyl}-4-[3-(6-methylpyridin-2-yl)-1H-pyrazol-4-yl]pyridine], the melting point stood at 191 °C. On to `Cc1cccc(-c2n[nH]cc2-c2ccnc(-c3ccc(OC(F)(F)F)cc3)c2)n1` [Example 4], for which the melting point was 131 °C. For `Cc1ccn2c(-c3ccnc(-c4ccc(OCC(N)=O)cc4)c3)c(-c3cccc(C)n3)nc2c1` [Example 77, 7-methyl-2-(6-methyl-pyridin-2-yl)-3-{2-[4(aminocarbonylmethyloxy)phenyl]-pyridin-4-yl}-imidazo[1,2-a]pyridine] the value was 213 °C; for `Cc1cccc(-c2sc(N)nc2-c2ccnc(-c3ccc(Cl)cc3)c2)n1` [Example 125], 222 °C; for `Cc1cccc(-c2nc3ccccn3c2-c2ccnc(-c3ccc(N4CCOCC4)cc3)c2)n1` [Example 79, 2-(6-methyl-pyridin-2-yl)-3-{2-[4-(morpholin-4-yl)phenyl]-pyridin-4yl}-imidazo[1,2-a]pyridine], 190 °C.

Consider `Cc1cccc(-c2nc3ccccn3c2-c2ccnc(-c3ccc(OCc4cn(C)cn4)cc3)c2)n1` [Example 76, 2-(6-methyl-pyridin-2-yl)-3-{2-[4-((1-methyl-imidazol-4-yl)methyloxy)phenyl]-pyridin-4-yl}-imidazo[1,2-a]pyridine], for which the melting point is 120 °C.

Turning to `Cc1cccc(-c2sc(N)nc2-c2ccnc(-c3ccc(OC(F)(F)F)cc3)c2)n1` [Example 126], the melting point came out at 232 °C. For `c1ccc(-c2nc3ccccn3c2-c2ccnc(-c3ccc(N4CCOCC4)cc3)c2)nc1` [Example 54, 3-[2-(4-(morpholin-4-yl)-phenyl)-pyridin-4-yl]-2-pyridin-2-yl-imidazo[1,2-a]pyridine] the value was 145 °C; for `Cc1cccc(-c2sc(N)nc2-c2ccnc(-c3ccc(CN(C)C)cc3)c2)n1` [Example 137], 210 °C; for `Cc1cccc(-c2nc3ccccn3c2-c2ccnc(-c3ccc(C(=O)N4CCOCC4)cc3)c2)n1` [Example 66, 2-(6-methyl-pyridin-2-yl)-3-{2-[4-((morpholin-4-yl)carbonyl)phenyl]-pyridin-4-yl}-imidazo[1,2-a]pyridine], 110 °C. Compound `Cc1cccc(-c2c[nH]nc2-c2ccnc(-c3ccc(CN4CCOCC4)cc3)c2)n1` [Example 21] came in with a melting point of 128 °C.
